The results in this text go back to ChEMBL document CHEMBL1201862, “PubChem BioAssay data set” (2004).

Among the test systems are ACHN; K562; NCI-H23; KM12; MOLT-4; OVCAR-3; COLO 205; IGROV-1; MDA-MB-231; SF-268; UACC-62; SK-OV-3; MDA-MB-435; HT-29; Malme-3M; A549; BT-549; DMS-273; SN12C; SK-MEL-28.
Test in all cases: NCI anticancer screen, dose series, 48 h

SMILES strings stand for the structures.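 Step 1: Grow cells in 96-well plates. Step 2: Expose to compound for 48 hours at 5 concentrations. Step 3: Interpolate endpoints linearly; if unreached, use highest concentration. Abbreviation: GI50, concentration required for 50% inhibition of growth.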 Activity calls are given as the source filed them. No stated cut-off is given here; in the data, active = GI50 up to about 1.1 µM and inactive = higher.

For the molecule `C/C=C(/C)C(=O)O[C@H]1[C@H](O)CC(c2ccc3c(c2O)C(=O)C2=C(O)C4(OC)C(=O)C(C(N)=O)=C(O)[C@H](CC(=O)c5ccccc5O)C4CC2[C@@]3(C)OC)O[C@@H]1C` (stereo partly drawn), the GI50 in the experiment with ACHN is 0.00418 µM (active); in the experiment with K562, 0.01 µM (active); in the experiment with NCI-H23, 0.00711 µM (active); in the experiment with KM12, 0.00647 µM (active); with MOLT-4 it was 0.148 µM (active); in the experiment with OVCAR-3, 0.00454 µM (active). In addition, the GI50 in the experiment with COLO 205 was 0.0104 µM (active); in the experiment on IGROV-1, 0.00577 µM (active); in the experiment on MDA-MB-231, 0.0078 µM (active); in the experiment with SF-268 it was 0.0057 µM (active); with UACC-62, 0.01 µM (active); in the experiment on SK-OV-3, 0.00446 µM (active). In addition, the GI50 is 0.0187 µM (active) in the experiment with MDA-MB-435; 0.00246 µM (active) with HT-29; 0.0182 µM (active) in the experiment on Malme-3M; 0.00311 µM (active) in the experiment on A549; 0.0187 µM (active) with BT-549; 0.01 µM (active) with DMS-273. Moreover, the GI50 in the experiment with SN12C is 0.00297 µM (active); in the experiment on SK-MEL-28 it was 0.653 µM (active).
Consider `COC(=O)/C(C#N)=C1\CCC(O)N1` (stereo not drawn), for which the GI50 in the experiment with ACHN, in the experiment with K562, in the experiment on NCI-H23, in the experiment with KM12, in the experiment with MOLT-4 and in the experiment on OVCAR-3 was > 100 µM (inactive) in each case. The GI50 in the experiment on COLO 205, with IGROV-1, in the experiment on SF-268, in the experiment with UACC-62, in the experiment on SK-OV-3 and in the experiment on HT-29 was > 100 µM (inactive) each time. Moreover, the GI50 in the experiment on Malme-3M, in the experiment on A549, with DMS-273, in the experiment on SN12C and with SK-MEL-28 was > 100 µM (inactive) in each case.
`CN(CCc1ccccn1)c1nc(=[N+](C)C)ss1`: the GI50 with ACHN is > 100 µM (inactive); in the experiment with K562, > 100 µM (inactive); in the experiment with NCI-H23, > 100 µM (inactive); in the experiment with KM12 it was 28.1 µM (inactive); in the experiment with MOLT-4, > 100 µM (inactive); in the experiment on OVCAR-3, 66.8 µM (inactive). Also, the GI50 was > 100 µM (inactive) in the experiment on COLO 205; > 100 µM (inactive) with IGROV-1; > 100 µM (inactive) with SF-268; 64.1 µM (inactive) in the experiment with UACC-62; > 100 µM (inactive) with SK-OV-3; 38.5 µM (inactive) in the experiment with HT-29. Moreover, the GI50 with Malme-3M is > 100 µM (inactive); with A549, 35.3 µM (inactive); with DMS-273, > 100 µM (inactive); in the experiment with SN12C, > 100 µM (inactive); with SK-MEL-28, > 100 µM (inactive).
`CCNC(=O)/C(=C/c1ccc(OC)cc1)c1cc(OC)c(OC)c(OC)c1`: the GI50 in the experiment on ACHN was 32.8 µM (inactive); in the experiment on K562, 3.19 µM (inactive); with NCI-H23 it was 13 µM (inactive); with KM12, 4.23 µM (inactive); in the experiment with MOLT-4 it was 7.35 µM (inactive); in the experiment on OVCAR-3 it was 3.78 µM (inactive). Moreover, the GI50 in the experiment on COLO 205 is 5.11 µM (inactive); with IGROV-1, 19.7 µM (inactive); in the experiment on MDA-MB-231 it was 6.41 µM (inactive); in the experiment with SF-268 it was 13.8 µM (inactive); in the experiment on UACC-62, 3.8 µM (inactive); in the experiment on SK-OV-3, 6.85 µM (inactive). Also, the GI50 with MDA-MB-435 is 2.09 µM (inactive); with HT-29, 3.41 µM (inactive); in the experiment with Malme-3M, 5.53 µM (inactive); in the experiment with A549, 7.62 µM (inactive); with BT-549 it was 14.4 µM (inactive); in the experiment on DMS-273 it was 3.47 µM (inactive). The GI50 in the experiment with SN12C is 20.7 µM (inactive); in the experiment on SK-MEL-28, 5.79 µM (inactive).
In the case of `O=C(NC(=S)Nc1ccccc1)c1ccc([N+](=O)[O-])cc1`, the GI50 was 83.9 µM (inactive) with ACHN; 52 µM (inactive) in the experiment on K562; 4.8 µM (inactive) in the experiment on NCI-H23; 3.46 µM (inactive) with KM12; 71.8 µM (inactive) with MOLT-4; 92.5 µM (inactive) in the experiment on OVCAR-3. Further, the GI50 in the experiment on COLO 205 was 47.3 µM (inactive); with IGROV-1, 71.9 µM (inactive); in the experiment on SF-268 it was > 100 µM (inactive); in the experiment on UACC-62, 75.7 µM (inactive); in the experiment with SK-OV-3, 50.1 µM (inactive); with HT-29, 80.9 µM (inactive). The GI50 was > 100 µM (inactive) with Malme-3M; 41.9 µM (inactive) with A549; 60.3 µM (inactive) in the experiment on DMS-273; > 100 µM (inactive) in the experiment with SN12C; > 100 µM (inactive) in the experiment with SK-MEL-28.
As to `CN(C)CCC[N+]1=Nc2cccc3cccc(c23)N1`, the GI50 with ACHN is 50.7 µM (inactive); in the experiment with K562 it was 31.8 µM (inactive); with NCI-H23, > 100 µM (inactive); with KM12, > 100 µM (inactive); in the experiment with MOLT-4 it was 24.4 µM (inactive); in the experiment with OVCAR-3 it was > 100 µM (inactive). For the same molecule, the GI50 is > 10 µM (inactive) in the experiment with COLO 205; 31.4 µM (inactive) in the experiment on IGROV-1; > 100 µM (inactive) in the experiment with SF-268; 34.1 µM (inactive) in the experiment with UACC-62; > 100 µM (inactive) in the experiment with SK-OV-3; 33.6 µM (inactive) in the experiment on HT-29. Besides, the GI50 in the experiment with Malme-3M was > 100 µM (inactive); with A549 it was > 100 µM (inactive); in the experiment on DMS-273, 18.8 µM (inactive); in the experiment with SN12C it was 85.1 µM (inactive); with SK-MEL-28, 56.2 µM (inactive).
Regarding `COc1ccc(C2[C@@H](Cl)C(=O)N2c2ccc(OC)cc2)cc1` (stereo partly drawn), the GI50 in the experiment with ACHN was 41.8 µM (inactive); in the experiment with K562, 19.5 µM (inactive); in the experiment with NCI-H23 it was > 100 µM (inactive); in the experiment with KM12 it was > 100 µM (inactive); with MOLT-4 it was 35.9 µM (inactive); in the experiment on OVCAR-3, 93.1 µM (inactive). Besides, the GI50 with COLO 205 is > 100 µM (inactive); in the experiment with IGROV-1, > 100 µM (inactive); in the experiment with SF-268 it was > 100 µM (inactive); in the experiment on UACC-62, 33.6 µM (inactive); in the experiment with SK-OV-3, 23.1 µM (inactive); with HT-29, > 100 µM (inactive). Moreover, the GI50 is 45.9 µM (inactive) in the experiment on Malme-3M; > 100 µM (inactive) with A549; 62.7 µM (inactive) in the experiment on DMS-273; > 100 µM (inactive) in the experiment on SN12C; > 100 µM (inactive) in the experiment on SK-MEL-28.
Turning to `COc1ccc(N2C(=O)C3c4[nH]c5ccc(OC)cc5c4C4CCC(C(C)(C)C)CC4C3C2=O)cc1` (stereo not drawn), the GI50 with ACHN is 28.5 µM (inactive); with K562, 23.1 µM (inactive); with NCI-H23 it was 19.1 µM (inactive); in the experiment on KM12 it was 34.3 µM (inactive); in the experiment on MOLT-4, 28.6 µM (inactive); with OVCAR-3 it was 92.3 µM (inactive). In addition, the GI50 in the experiment on COLO 205 is 12.3 µM (inactive); in the experiment on IGROV-1 it was 51.2 µM (inactive); with SF-268 it was 14.3 µM (inactive); with UACC-62 it was 27.2 µM (inactive); in the experiment with SK-OV-3, 15.2 µM (inactive); with HT-29 it was 32.5 µM (inactive). For the same molecule, the GI50 in the experiment on Malme-3M is 7.03 µM (inactive); in the experiment with A549 it was 26.7 µM (inactive); with DMS-273 it was 10.2 µM (inactive); in the experiment on SN12C, 38.2 µM (inactive); in the experiment with SK-MEL-28, 23.2 µM (inactive).
`O=C(O)C1CCC(=O)N1C(=O)C(Cl)c1ccccc1` (stereo not drawn): the GI50 in the experiment on ACHN, with K562, with NCI-H23, with KM12, in the experiment on MOLT-4 and in the experiment with OVCAR-3 was > 100 µM (inactive) in each case. For the same molecule, the GI50 with COLO 205, with IGROV-1, in the experiment with SF-268, in the experiment with UACC-62, with SK-OV-3 and with HT-29 was > 100 µM (inactive) in each case. The GI50 in the experiment on Malme-3M, in the experiment on A549, with DMS-273, with SN12C and in the experiment on SK-MEL-28 was > 100 µM (inactive) in each case.
Turning to `CC/N=C(/C#N)NCC`, the GI50 with ACHN, with K562, in the experiment with NCI-H23, in the experiment on KM12, with MOLT-4 and in the experiment with OVCAR-3 was > 100 µM (inactive) throughout. Moreover, the GI50 in the experiment on COLO 205 was 99.3 µM (inactive); in the experiment on IGROV-1 it was > 100 µM (inactive); in the experiment on SF-268, > 100 µM (inactive); with UACC-62, > 100 µM (inactive); in the experiment with SK-OV-3, > 100 µM (inactive); with HT-29, 40.2 µM (inactive). The GI50 was > 100 µM (inactive) with Malme-3M; > 100 µM (inactive) in the experiment with A549; 44.5 µM (inactive) in the experiment on DMS-273; > 100 µM (inactive) in the experiment with SN12C; > 100 µM (inactive) in the experiment on SK-MEL-28.
With `Cn1c(C2CCCc3c2c2ccccc2n3C)cc2ccccc21` (stereo not drawn), the GI50 was > 318 µM (inactive) in the experiment with ACHN; 74 µM (inactive) in the experiment on K562; 40.2 µM (inactive) with NCI-H23; 30.6 µM (inactive) in the experiment on KM12; 89.5 µM (inactive) with MOLT-4; 36.2 µM (inactive) with OVCAR-3. For the same molecule, the GI50 in the experiment on COLO 205 was 140 µM (inactive); in the experiment with IGROV-1, 31.6 µM (inactive); in the experiment on SF-268, 110 µM (inactive); with UACC-62 it was 35.8 µM (inactive); with SK-OV-3, 100 µM (inactive); in the experiment on HT-29, 83 µM (inactive). The GI50 is 20.5 µM (inactive) in the experiment on Malme-3M; 128 µM (inactive) in the experiment with A549; 57.3 µM (inactive) with DMS-273; 222 µM (inactive) in the experiment on SN12C; 114 µM (inactive) in the experiment with SK-MEL-28.
